Here are results for two substances from publication PMC8675232 (Frontiers in Pharmacology, 2021).

Data set [1] has as its system healthy Chinese male volunteers. In words: Pharmacodynamics (glucose infusion rate) in 24-h euglycemic clamp. The data set is classed as in vivo. The following applies: 0.4 IU/kg s.c. single dose, mean ± SD. The method, then: The volunteers were screened and qualified for the entry standard. […] During the trial, volunteers were requested to avoid strenuous exercises, smoking, drinking alcohol, or caffeinated drinks (e.g., tea and coffee). […] C-peptide reduction rate <30%; group B: […] The trial was carried out in accordance with the principles of the Declaration of Helsinki. This study was approved by the Ethics Committee of the First Affiliated Hospital of ChongQing Medical University (No. 20190101). All recruited volunteers underwent a single-dose euglycemic clamp test. Participants arrived at the ward on the day prior to the clamp test to ensure a 10-h fasting condition and to maintain fasting during euglycemic clamping. […] Intravenous access was obtained in one arm for a 20% glucose infusion and in the other for blood drawing. The arm for blood drawing was heated using a warming blanket to arterialize venous blood (55-65°C). […] Basal glucose (BG) was defined as the average blood glucose level before injection; the target glucose (TG) level was defined as the BG minus 0.28 mmol/[…] al., 2015b]); and we controlled the blood glucose concentration as close as possible to the TG level. The glucose infusion rate (GIR) was manually adjusted by investigators to maintain blood glucose at the target value. […] SPSS 22.0 and WinNonlin 8.1 were used for statistical analysis. […] The oscillation of glucose was calculated with formula 1-Gt (glucose at time t)/Gd (desired glucose). […] The pharmacodynamic parameters were area under the glucose infusion rate versus time curve (AUCGIR0-24 h), peak of glucose infusion rate (GIRmax), and time to […]).

For data set [2] the following is noted: in vivo; cited from earlier work.
Setting [3] is: group A (C-peptide reduction <30%, n = 13).
Setting [4] is: group B (C-peptide reduction ≥30% and <50%, n = 15).
[5] abbreviates: group C (C-peptide reduction ≥50%, n = 11).

As usually defined, the half-life is how long it takes for the measured level to halve.

In the case of insulin glargine, in data set [1] (setting [3]), the “AUCGIR0–24 h” value is on record as 3175.9 ± 1135.2 mg/kg, the GIRmax is 3.5 ± 1.3 mg/kg/min and the TGIRmax worked out at 593.1 ± 198.1 min. Also, in data set [1] (setting [4]), the “AUCGIR0–24 h” value was found to be 2862.9 ± 1176.0 mg/kg, the GIRmax was found to be 3.4 ± 1.4 mg/kg/min and the TGIRmax is recorded as 584.0 ± 199.1 min. In data set [1] (setting [5]), the “AUCGIR0–24 h” value worked out at 2526.1 ± 1222.0 mg/kg, the GIRmax is recorded as 3.0 ± 1.5 mg/kg/min and the TGIRmax amounted to 756.4 ± 228.0 min.

With C-peptide, in data set [2], the half-life was 20 to 30 min.
